Data: US7196110B2, “N-substituted tricyclic 3-aminopyrazoles as inhibitors for the treatment of cell proliferative disorders” (Janssen Phamaceutica N.V., priority 2002, dated 2007)
Read-outs that look alike come from different tables or passages of the source.

Biological target: T1, PDGF-receptor beta enzyme comprising the tyrosine kinase domain (Homo sapiens, UniProt P09619)
T1 construct: from amino acid 545 to 1106 of GenBank Access NO: AAA36427
Assay: Inhibition of PDGF-receptor kinase activity (cell-free, PLC1 peptide, 33P Flashplate)
Type: biochemical
Conditions: for inhibition at 10 µM: compound at 10 uM, read-out: Percent Inhibition @ 10 uM
Procedure, shortened: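 The IC50 is the inhibitor level halving kinase activity relative to inhibitor-free wells, measured as 33P captured on a streptavidin-bound biotin-PLC1 peptide. The reaction ran 60 min at 30 °C in pH 8 Tris buffer with 1 mM DTT, 5 μM ATP and the 545–1106 kinase-domain enzyme.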

[1] = PDGF-R kinase activity, read-out: IC50

T1 sequence (P09619 545-1106): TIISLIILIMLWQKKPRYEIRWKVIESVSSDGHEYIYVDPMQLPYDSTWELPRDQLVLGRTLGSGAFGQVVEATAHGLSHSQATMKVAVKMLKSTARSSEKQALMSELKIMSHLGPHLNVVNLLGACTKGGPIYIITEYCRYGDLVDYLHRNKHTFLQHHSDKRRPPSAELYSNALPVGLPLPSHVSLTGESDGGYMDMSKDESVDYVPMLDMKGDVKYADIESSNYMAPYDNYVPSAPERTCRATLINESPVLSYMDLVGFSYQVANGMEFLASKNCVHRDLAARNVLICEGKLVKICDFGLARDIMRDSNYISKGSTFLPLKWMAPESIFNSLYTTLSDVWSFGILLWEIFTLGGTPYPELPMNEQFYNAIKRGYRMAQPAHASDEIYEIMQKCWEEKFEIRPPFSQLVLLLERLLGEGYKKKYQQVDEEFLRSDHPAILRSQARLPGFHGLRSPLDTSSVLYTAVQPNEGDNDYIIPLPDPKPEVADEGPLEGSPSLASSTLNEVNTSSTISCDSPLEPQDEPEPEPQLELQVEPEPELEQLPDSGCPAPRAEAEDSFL

Row | inhibition at 10 µM (PDGF-R kinase activity) [%] | IC50 [1] [µM] | IC50 (read-out: IC50 (μM) on PDGF-R kinase activity) [µM] | SMILES
1 | 39 |  |  | COc1ccc(OC)c(Nc2[nH]nc3c2Cc2cc(OC)c(OC)cc2-3)c1 [Compound 48, (6,7-Dimethoxy-2,4-dihydro-indeno[1,2-c]pyrazol-3-yl)-(2,5-dimethoxy-phenyl)-amine]
2 | 50 | 9.34 |  | CC(C)(C)c1cc(Nc2[nH]nc3c2Cc2cc(F)ccc2-3)cc(C(C)(C)C)c1 [Compound 303, (3,5-Di-tert-butyl-phenyl)-(6-fluoro-2,4-dihydro-indeno[1,2-c]pyrazol-3-yl)-amine]
3 | 93 | 0.00204 |  | COc1cc2c(cc1OCC(O)CO)Cc1c-2n[nH]c1Nc1cccc(Cl)c1 (stereo not shown) [Compound 259]
4 | 96 | 0.206 |  | CCOc1cccc(Nc2[nH]nc3c2Cc2c(OCCCO)cccc2-3)c1 [Compound 441, 3-[3-(3-Ethoxy-phenylamino)-2,4-dihydro-indeno[1,2-c]pyrazol-5-yloxy]-propan-1-ol]
5 | 88 | 0.359 |  | CC(C)Oc1cc2c(cc1OC(C)C)C(C)c1c-2n[nH]c1Nc1cccc(Br)c1 (stereo not shown) [Compound 353, (3-Bromo-phenyl)-(6,7-diisopropoxy-4-methyl-2,4-dihydro-indeno[1,2-c]pyrazol-3-yl)-amine]
6 | 40 |  |  | COC(=O)Cn1nc2c(c1Nc1cccc(F)c1)Cc1cc(OC)c(OC)cc1-2 [Compound 602, [3-(3-Fluoro-phenylamino)-6,7-dimethoxy-4H-indeno[1,2-c]pyrazol-2-yl]-acetic acid methyl ester]
7 | 80 | 1.15 |  | COc1cc2c(cc1OC)-c1c(c(Nc3cccc(F)c3)nn1C(=O)c1ccccc1)C2 [Compound 427, [3-(3-Fluoro-phenylamino)-6,7-dimethoxy-4H-indeno[1,2-c]pyrazol-1-yl]-phenyl-methanone]
8 | 37 |  |  | COc1ccc(CNc2[nH]nc3c2Cc2cc(OC)c(OC)cc2-3)cc1 [Compound 231, (6,7-Dimethoxy-2,4-dihydro-indeno[1,2-c]pyrazol-3-yl)-(4-methoxy-benzyl)-amine]
9 | 68.5 | 0.0748 |  | Cc1ccc2c(c1)-c1n[nH]c(Nc3ccc4[nH]ccc4c3)c1C2 [Compound 311, (1H-Indol-5-yl)-(7-methyl-2,4-dihydro-indeno[1,2-c]pyrazol-3-yl)-amine]
10 | 71 | 1.14 |  | COC(=O)C(NC(=O)n1nc2c(c1Nc1cccc(F)c1)Cc1cc(OC)c(OC)cc1-2)C(C)C (stereo not shown) [Compound 413, 2-{[3-(3-Fluoro-phenylamino)-6,7-dimethoxy-4H-indeno[1,2-c]pyrazole-2-carbonyl]-amino}-3-methyl-butyric acid methyl ester]
11 | 89 | 0.181 |  | COc1cc2c(cc1OC)C(C)c1c-2n[nH]c1Nc1cccc(OCc2ccccc2)c1 (stereo not shown) [Compound 254, (3-Benzyloxy-phenyl)-(6,7-dimethoxy-4-methyl-2,4-dihydro-indeno[1,2-c]pyrazol-3-yl)-amine]
12 | 92.5 | 0.101 |  | CN(C)CCCOc1ccc2c(c1)Cc1c-2n[nH]c1Nc1cccc(C(F)(F)F)c1 [Compound 165, [6-(3-Dimethylamino-propoxy)-2,4-dihydro-indeno[1,2-c]pyrazol-3-yl]-(3-trifluoromethyl-phenyl)-amine]
13 | 82.5 | 0.892 |  | COc1cccc2c1Cc1c-2n[nH]c1Nc1cccc(S(N)(=O)=O)c1 [Compound 418, 3-(5-Methoxy-2,4-dihydro-indeno[1,2-c]pyrazol-3-ylamino)-benzenesulfonamide]
14 | 49 |  |  | FC(F)(F)c1ccc(Nc2[nH]nc3c2Cc2cc(Cl)ccc2-3)cc1 [Compound 193, (6-Chloro-2,4-dihydro-indeno[1,2-c]pyrazol-3-yl)-(4-trifluoromethyl-phenyl)-amine]
15 | 93 | 0.076 |  | Fc1cccc(Nc2[nH]nc3c2Cc2cc4c(cc2-3)OCO4)c1 [Compound 96, (2,9-Dihydro-5,7-dioxa-2,3-diaza-cyclopenta[a]-s-indacen-1-yl)-(3-fluoro-phenyl)-amine]
16 | 96 | 0.075 |  | COc1cc2c(cc1OC)-c1nn(C(C)=O)c(Nc3cccc(F)c3)c1C2 [Compound 406, 1-[3-(3-Fluoro-phenylamino)-6,7-dimethoxy-4H-indeno[1,2-c]pyrazol-2-yl]-ethanone]
17 | 102 | 0.424 |  | COc1cccc(Nc2[nH]nc3c2Cc2c(OCCCN(C)C)cccc2-3)c1 [Compound 74, [5-(3-Dimethylamino-propoxy)-2,4-dihydro-indeno[1,2-c]pyrazol-3-yl]-(3-methoxy-phenyl)-amine]
18 | 30.5 |  |  | COC(=O)Cn1nc(Nc2cccc(F)c2)c2c1-c1cc(OC)c(OC)cc1C2 [Compound 509, [3-(3-Fluoro-phenylamino)-6,7-dimethoxy-4H-indeno[1,2-c]pyrazol-1-yl]-acetic acid methyl ester]

Row | inhibition at 10 µM (PDGF-R kinase activity) [%] | IC50 [1] [µM] | IC50 (read-out: IC50 (μM) on PDGF-R kinase activity) [µM] | SMILES
19 | 101 | 0.0002 |  | COCCCOc1cc2c(cc1OC)-c1n[nH]c(Nc3cccc(OC)c3)c1C2 [Compound 244, [7-Methoxy-6-(3-methoxy-propoxy)-2,4-dihydro-indeno[1,2-c]pyrazol-3-yl]-(3-methoxy-phenyl)-amine]
20 | 89 |  |  | COc1cc2c(cc1OC)-c1n[nH]c(Nc3ccccc3Cl)c1C2 [Compound 9, (2-Chloro-phenyl)-(6,7-dimethoxy-2,4-dihydro-indeno[1,2-c]pyrazol-3-yl)-amine]
21 | 91 | 0.0688 |  | COc1cccc(Nc2[nH]nc3c2Cc2cc(OC(C)C)c(OC(C)C)cc2-3)c1 [Compound 168, (6,7-Diisopropoxy-2,4-dihydro-indeno[1,2-c]pyrazol-3-yl)-(3-methoxy-phenyl)-amine]
22 | 72 | 0.138 |  | Cc1ccc(Nc2[nH]nc3c2Cc2cc(Cl)ccc2-3)cc1 [Compound 198, (6-Chloro-2,4-dihydro-indeno[1,2-c]pyrazol-3-yl)-p-tolyl-amine]
23 | 29 | 41.6 |  | FC(F)(F)Oc1cccc(Nc2[nH]nc3c2Cc2cc(Br)ccc2-3)c1 [Compound 154, (6-Bromo-2,4-dihydro-indeno[1,2-c]pyrazol-3-yl)-(3-trifluoromethoxy-phenyl)-amine]
24 | 33 | 43.2 |  | COc1cc2c(cc1OC)-c1c(c(Nc3cccc(F)c3)nn1C(=O)NCCNC(=O)C(C)C)C2 [Compound 525, 3-(3-Fluoro-phenylamino)-6,7-dimethoxy-4H-indeno[1,2-c]pyrazole-1-carboxylic acid (2-isobutyrylamino-ethyl)-amide]
25 | 95 | 0.11 |  | COc1ccc(Nc2[nH]nc3c2C(C)c2ccccc2-3)c(OC)c1 (stereo not shown) [Compound 111, (2,4-Dimethoxy-phenyl)-(4-methyl-2,4-dihydro-indeno[1,2-c]pyrazol-3-yl)-amine]
26 | 99 | 0.258 |  | COc1cc2c(cc1OC)-c1n[nH]c(Nc3c(OC)ccnc3OC)c1C2 [Compound 454, (6,7-Dimethoxy-2,4-dihydro-indeno[1,2-c]pyrazol-3-yl)-(2,4-dimethoxy-pyridin-3-yl)-amine]
27 | 67 | 0.103 |  | Fc1ccc(F)c(Nc2[nH]nc3c2Cc2cc(Cl)ccc2-3)c1 [Compound 192, (6-Chloro-2,4-dihydro-indeno[1,2-c]pyrazol-3-yl)-(2,5-difluoro-phenyl)-amine]
28 | 7 |  |  | COc1cc2c(cc1OC)-c1c(c(Nc3cccc(F)c3)nn1S(=O)(=O)N(C)C)C2 [Compound 447, 3-(3-Fluoro-phenylamino)-6,7-dimethoxy-4H-indeno[1,2-c]pyrazole-1-sulfonic acid dimethylamide]
29 | 53 | 8.11 |  | FC(F)(F)c1cccc(Nc2[nH]nc3c2Cc2cc(Br)ccc2-3)c1 [Compound 155, (6-Bromo-2,4-dihydro-indeno[1,2-c]pyrazol-3-yl)-(3-trifluoromethyl-phenyl)-amine]
30 | 68 | 0.41 |  | COc1cc2c(cc1OC)C(C)c1c-2n[nH]c1Nc1ccc(F)cc1 (stereo not shown) [Compound 248, (6,7-Dimethoxy-4-methyl-2,4-dihydro-indeno[1,2-c]pyrazol-3-yl)-(4-fluoro-phenyl)-amine]
31 | 75 | 0.131 |  | COc1ccc(Nc2[nH]nc3c2Cc2cc(OC)c(OC)cc2-3)cc1 [Compound 6, (6,7-Dimethoxy-2,4-dihydro-indeno[1,2-c]pyrazol-3-yl)-(4-methoxy-phenyl)-amine]
32 | 18 |  |  | COc1cc2c(cc1OC)-c1n[nH]c(NCCN3CCOCC3)c1C2 [Compound 69, (6,7-Dimethoxy-2,4-dihydro-indeno[1,2-c]pyrazol-3-yl)-(2-morpholin-4-yl-ethyl)-amine]
33 | 85 | 1.29 |  | COc1cc2c(cc1OC)-c1n[nH]c(Nc3ccco3)c1C2 [Compound 78, (6,7-Dimethoxy-2,4-dihydro-indeno[1,2-c]pyrazol-3-yl)-furan-2-yl-amine]
34 | 0 |  | 98.4 | CCCCCCCCCCCCCCCNC(=O)n1nc2c(c1Nc1cccc(F)c1)Cc1cc(OC)c(OC)cc1-2 [Compound 598, 3-(3-Fluoro-phenylamino)-6,7-dimethoxy-4H-indeno[1,2-c]pyrazole-2-carboxylic acid pentadecylamide]
35 | 88 | 0.886 |  | COc1ccc2c(c1)Cc1c-2n[nH]c1Nc1ccc(C(F)(F)F)cc1 [Compound 89, (6-Methoxy-2,4-dihydro-indeno[1,2-c]pyrazol-3-yl)-(4-trifluoromethyl-phenyl)-amine]
36 | 79 | 3.54 |  | COc1cc2c(cc1OC)-c1n[nH]c(Nc3ccc(Cl)cc3Cl)c1C2 [Compound 17, (2,4-Dichloro-phenyl)-(6,7-dimethoxy-2,4-dihydro-indeno[1,2-c]pyrazol-3-yl)-amine]
